The values that follow come from patent publication US20230106760A1, “ANTIBACTERIAL AND ANTIFUNGAL POLYKETIDES FROM ENVIRONMENTAL AMYCOLATOPSIS SPP” (The United States of America, as represented by the …, priority 2020, published 2023).

The term MIC denotes the lowest concentration that inhibits growth of the organism.

The subject of assay [1] is Candida auris ATCC MYA-5001. As to the kind of experiment: MIC, CLSI broth dilution susceptibility assay. It is filed as cell-based. The conditions noted are these: for Minimum Inhibitory Concentration (MIC): Candida auris ATCC MYA-5001. The method, then: (§1) The compounds were assayed against Gram-positive bacteria Staphylococcus aureus (Sa), methicillin-resistant Sa (MRSA), Enterococcus faecalis, and Vancomycin-resistant E. faecalis; the Gram-negative bacteria Escherichia coli and Pseudomonas aeruginosa; and the fungi Candida albicans and Amphotericin B-resistant C. albicans.
(§2) The growth conditions were adapted from the CLSI protocols for broth dilution susceptibility assays. A culture of S. aureus ATCC 29213 was diluted with MHII broth to an inoculum of—5×10^5 CFU/mL. Cultures were grown in 100 μL in round-bottom 96-well plates with increasing concentrations of test or control compound. Plates were gently rocked at 37° C. overnight and then 50 μL of each culture was spread onto TSA plates without antibiotic. The plates were incubated at 37° C. overnight and then examined for bacterial growth. Similarly, an inoculum of C. albicans ATCC 28517 or C. auris ATCC MYA-5001 was prepared in RPMI-1640 with 165 mM MOPS at 0.5×10^3-2.5×10^3 CFU/mL. Cultures were grown in 200 μL in round-bottom 96-well plates with increasing concentrations of test or control compound. Plates were gently rocked at 35° C. overnight and then 50 μL of each culture was spread onto Sabouraud dextrose agar (SDA) plates without compound. The plates were incubated at 35° C. overnight and then examined for fungal growth.
In general terms: In broth dilution the organism is exposed to a series of concentrations in liquid medium.

The test system of another assay is S. aureus ATCC 29213. As to the kind of experiment: Bactericidal activity: broth cultures with compound plated onto TSA without antibiotic. The conditions noted are these: for MIC: Staphylococcus aureus, ATCC29213. It is filed as cell-based, Staphylococcus aureus. The method, then:
as §2
(§3) After treatment with concentrations of compound 2 at or nearing the MIC, no viable organism could be recovered.
(§4) FIG. 19-20 show bactericidal and fungicidal activities of compound 2. FIG. 19A-C show the bactericidal activity of compound 2 against S. aureus ATCC 29213. […] FIG. 20A-B show the fungicidal activity of compound 2.

The test system of assay [2] is Staphylococcus aureus (Sa) ATCC 29213. As to the kind of experiment: MIC, CLSI broth dilution susceptibility assay. The assay is classed as cell-based. The settings on record: for Minimum Inhibitory Concentration (MIC): Staphylococcus aureus ATCC 29213. On the procedure: as §1, §2
Assay [3] concerns Amycolatopsis glycosyltransferase. As to the kind of experiment: Glycosyltransferase assay (substrate specificity). The assay is classed as biochemical, Amycolatopsis sp. F10. The settings on record: PBS, 500 μM UDP-glucose, 100 μM substrate, 30° C., 2 to 30 min; HPLC UV 254 nm or MS. The method, then: Glycosyltransferase expression vector cloning: An expression vector pET28b-gt was constructed by cloning the glycosyltransferase gene into pET28b (Novagen) with a C-terminal 6-His tag using the NEBuilder HiFi DNA Assembly kit (New England Biolabs). The glycosyltransferase gene was PCR amplified from F10 genomic DNA with primers that appended 5′ and 3′ overhangs homologous to the pET28b multiple cloning site. The linearized pET28b vector was prepared by restriction enzyme digestion with NcoI and XhoI. After cloning and confirmation by Sanger sequencing, pET28b-gt was transformed into E. coli BL21(DE3) for protein expression. The expression vector pET28b-gt-H15A was created from pET28b-gt with site-directed mutagenesis using overlapping primers and the QuikChange II kit.
Glycosyltransferase recombinant protein purification: An overnight culture of the glycosyltransferase expression strain in Luria-Bertani broth (LB) was used to inoculate 2 L LB with a 1:100 dilution (v/v). The culture was grown at 37° C. to OD600=0.5-0.7 and 0.1 mM isopropyl β-d-1-thiogalactopyranoside (IPTG) was added to induce protein expression for 4 hours. Cells were harvested by centrifugation, suspended in 20 mL phosphate-buffered saline (PBS) and stored at −80° C. For purification, the cells were thawed, lysed (lysozyme, DNase, MgCl2, phenylmethylsulfonyl fluoride (PMSF), and sonication), and cellular debris was removed by centrifugation. The glycosyltransferase was purified from the clarified lysate in two chromatographic steps on an AKTA Pure 25 FPLC. […] The eluted fractions containing the glycosyltransferase were confirmed by SDS-PAGE, pooled, and concentrated and buffer exchanged to remove imidazole in a 10000 Da MW centrigual filter device. The sample was run on a HiLoad Superdex 75 pg 16/600 size exclusion column with 50 mM HEPES pH 6.8/50 mM NaCl/10% glycerol. Protein purity was confirmed by SDS-PAGE. The purified glycosyltransferase was concentrated and flash frozen in aliquots at […]. […]

Assay [4] deals with Enterococcus faecalis ATCC 29212. As to the kind of experiment: MIC, CLSI broth dilution susceptibility assay. It is filed as cell-based. The settings on record: for Minimum Inhibitory Concentration (MIC): Enterococcus faecalis ATCC 29212. The method, then:
as §1, §2

Assay [5] relates to MRSA, methicillin-resistant Sa ATCC 43300. As to the kind of experiment: MIC, CLSI broth dilution susceptibility assay. It is filed as cell-based, Staphylococcus aureus. The conditions noted are these: for Minimum Inhibitory Concentration (MIC): MRSA ATCC 43300. The method, then: as §1, §2
The subject of the next assay is C. auris ATCC MYA-5001. As to the kind of experiment: Fungicidal activity: broth cultures with compound plated onto SDA without compound. It is filed as cell-based, Candida auris. The method, then: as §2, §3, §4
The test system of assay [6] is Vancomycin-resistant E. faecalis ATCC 51299. As to the kind of experiment: MIC, CLSI broth dilution susceptibility assay. It is filed as cell-based, Enterococcus faecalis. The method, then: as §1, §2
In the next assay the test system is C. albicans ATCC 28517. The assay can be described thus: Fungicidal activity: broth cultures with compound plated onto SDA without compound. The assay is classed as cell-based, Candida albicans. The method, then: as §2, §3, §4
Assay [7] relates to Escherichia coli ATCC 25922. The assay can be described thus: MIC, CLSI broth dilution susceptibility assay. It is filed as cell-based. On the procedure:
as §1, §2

Assay [8] deals with Candida albicans ATCC 28517. As to the kind of experiment: MIC, CLSI broth dilution susceptibility assay. The assay is classed as cell-based. The settings on record: for Minimum Inhibitory Concentration (MIC): Candida albicans ATCC 28517. On the procedure:
as §1, §2

For assay [9], the system named is Pseudomonas aeruginosa ATCC 27853. The assay can be described thus: MIC, CLSI broth dilution susceptibility assay. The assay is classed as cell-based. On the procedure: as §1, §2
For assay [10], the system named is Amphotericin B-resistant C. albicans ATCC 200955. It is filed as cell-based. On the procedure:
as §1, §2

Where [11] appears, read: S. aureus ATCC 29213, FIG. 19 bactericidal experiment.
Where [12] appears, read: at or nearing the MIC no viable organism could be recovered.

Converted amounts (≈) assume the structure as drawn. A value given as a limit tells only on which side of the number the result lay.

In the case of `OC(Cn1cncn1)(Cn1cncn1)c1ccc(F)cc1F` [fluconazole, reference compound], in [1] (C. auris, footnote control), the “MIC, antibiotic control” value is reported as “C. auris: fluconazole = 1 ug/mL”.
As for `O=C(N[C@H](CO)[C@H](O)c1ccc([N+](=O)[O-])cc1)C(Cl)Cl` [chloramphenicol, reference compound], the MIC in the assay with S. aureus ATCC 29213 (setting [11]) is 8 µg/mL (≈ 24.8 µM).
For the compound `Cc1onc(-c2ccccc2)c1C(=O)N[C@@H]1C(=O)N2[C@@H]1SC(C)(C)[C@@H]2C(=O)O` [oxacillin, reference compound], in assay [2] (S. aureus, footnote control), the “MIC, antibiotic control” value is listed as “S. aureus: oxacillin = 0.25-0.5 ug/mL”. In addition, in the assay with S. aureus ATCC 29213 (setting [11]), the minimum inhibitory concentration (MIC) was 2 µg/mL (≈ 4.98 µM).
On to `CC[C@H]1OC(=O)[C@H](C)[C@@H](O[C@H]2C[C@@](C)(OC)[C@@H](O)[C@H](C)O2)[C@H](C)[C@@H](O[C@@H]2O[C@H](C)C[C@H](N(C)C)[C@H]2O)[C@](C)(O)C[C@@H](C)C(=O)[C@H](C)[C@@H](O)[C@]1(C)O` [erythromycin], for which the “Glycosyltransferase activity on the substance as substrate” value (“Glycosyltransferase activity” for short) in assay [3] is reported as “no activity”.
For the compound `CN[C@H](CC(C)C)C(=O)N[C@H]1C(=O)N[C@@H](CC(N)=O)C(=O)N[C@H]2C(=O)N[C@H]3C(=O)N[C@H](C(=O)N[C@H](C(=O)O)c4cc(O)cc(O)c4-c4cc3ccc4O)[C@H](O)c3ccc(c(Cl)c3)Oc3cc2cc(c3O[C@@H]2O[C@H](CO)[C@@H](O)[C@H](O)[C@H]2O[C@H]2C[C@](C)(N)[C@H](O)[C@H](C)O2)Oc2ccc(cc2Cl)[C@H]1O` [vancomycin, reference compound], the “MIC, antibiotic control” value in assay [4] (E. faecalis, footnote control) is on record as “E. faecalis: vancomycin = 2 ug/mL”; in assay [5] (MRSA, footnote control) it was “MRSA: vancomycin = 0.5-1 ug/mL”.
Turning to `CC/C=C/C=C/C=C/C(O)CC1(O)OC(CC(O)C(O)C(O)C(O)C(O)C(C)C(O)C(C)C(O)CC(O)CC(O)CC(O)C(C)C(O)C(C)C(O)C(C)C(O)C(O)CC(C)CC(C)/C=C(C)/C(O)=C2/C(=O)C(C)N(C)C2=O)C(O)C(O)C1O` (stereo not shown) [Compound 2], the “MIC in the experiment” value in the assay on C. auris ATCC MYA-5001 (C. auris ATCC MYA-5001, FIG. 20B fungicidal experiment) stood at 16 µg/mL (≈ 13.4 µM); with C. albicans ATCC 28517 (C. albicans ATCC 28517, FIG. 20A fungicidal experiment), 8 µg/mL (≈ 6.7 µM); in the assay with S. aureus ATCC 29213 (setting [11]), 2 µg/mL (≈ 1.67 µM). In addition, the “Mode of action against C. auris (fungicidal)” value in the assay on C. auris ATCC MYA-5001 (setting [12]) is “fungicidal”. The “Minimum Inhibitory Concentration (MIC)” value in assay [6] is recorded as 8 micrograms/mL; in [2], 2 micrograms/mL; in assay [7] it was above 128 micrograms/mL; in assay [8], 8 micrograms/mL; in [1], 16 micrograms/mL; in [4], 8 micrograms/mL. For the same compound, the results for the “Minimum Inhibitory Concentration (MIC)” value in assay [9], in [5] and in [10] were above 128 micrograms/mL, 2 micrograms/mL and 8 micrograms/mL, respectively. The “Glycosyltransferase activity” value in assay [3] is reported as “complete conversion”. Besides, the “Mode of action against C. albicans (fungicidal)” value in the assay with C. albicans ATCC 28517 (setting [12]) is “fungicidal”. The “Mode of action against S. aureus (bactericidal)” value with S. aureus ATCC 29213 (setting [12]) is reported as “bactericidal”.
Consider `CC/C=C/C=C/C=C/C(O)CC1(O)OC(CC(O)C(O)C(O)C(O)C(O)C(C)C(O)C(C)C(O)CC(O)CC(O)CC(O)C(C)C(O)C(C)C(O)C(C)C(O)C(CC(C)CC(C)/C=C(C)/C(O)=C2/C(=O)C(C)N(C)C2=O)OC2OC(CO)C(O)C(O)C2O)C(O)C(O)C1O` (stereo not shown) [Compound 1], for which the “Minimum Inhibitory Concentration (MIC)” value in assay [6], in assay [2], in assay [7], in assay [8], in assay [1] and in [4] was above 128 micrograms/mL in each case. Also, the “Minimum Inhibitory Concentration (MIC)” value in assay [9], in [5] and in assay [10] was above 128 micrograms/mL each time.
Turning to `C[C@@H]1[C@H](O)[C@@H](C)/C=C/C=C/C=C/C=C/C=C/C=C/C=C/[C@H](O[C@@H]2O[C@H](C)[C@@H](O)[C@H](N)[C@@H]2O)C[C@@H]2O[C@](O)(C[C@@H](O)C[C@@H](O)[C@H](O)CC[C@@H](O)C[C@@H](O)CC(=O)O[C@H]1C)C[C@H](O)[C@H]2C(=O)O` [amphotericin B, reference compound], the “MIC, antibiotic control” value in [8] (C. albicans, footnote control) is “C. albicans: amphotericin B = 2 ug/mL”.
For `CC[C@H]1OC(=O)C[C@@H](O)[C@H](C)[C@@H](O[C@@H]2O[C@H](C)[C@@H](O[C@H]3C[C@@](C)(O)[C@@H](O)[C@H](C)O3)[C@H](N(C)C)[C@H]2O)[C@@H](CC=O)C[C@@H](C)C(=O)/C=C/C(C)=C/[C@@H]1CO[C@@H]1O[C@H](C)[C@@H](O)[C@@H](OC)[C@H]1OC` [tylosin], the “Glycosyltransferase activity” value in assay [3] is “no activity”.
